Results on 30 compounds are retold here after PubChem BioAssay (NCI).

Among the test systems are HCC-2998 colon; 786-0 renal; HCT-15 colon; HL-60(TB) leukemia; SK-MEL-5 melanoma; CCRF-CEM leukemia.
What all share (assay): NCI-60 cell line screen, 48 h

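Protocol summary: plate cells (96-well), add compound at 5 concentrations, incubate 48 h, interpolate endpoints linearly. GI50 marks 50% less growth. TGI denotes the concentration required for complete inhibition of growth.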

In the case of `CC1=C(C(=O)NCc2ccccc2)C(c2ccc([N+](=O)[O-])cc2)C(C(=O)NCc2ccccc2)=C(C)N1`, the TGI is greater than 100 µM in the experiment with HCC-2998 colon; greater than 100 µM in the experiment on 786-0 renal; greater than 100 µM with HCT-15 colon; 49.3 µM in the experiment on HL-60(TB) leukemia; greater than 100 µM in the experiment with SK-MEL-5 melanoma.
As to `COc1ccc(NC(=O)CC/C(CC(=O)C(C)(C)C)=N\NC(=O)C(N)=O)cc1`, the TGI with HCC-2998 colon, in the experiment with 786-0 renal, with HCT-15 colon, in the experiment on HL-60(TB) leukemia and with CCRF-CEM leukemia was greater than 100 µM throughout.
Consider `O=C1c2ccccc2NC1(c1ccccc1)c1c(-c2ccccc2)[nH]c2ccccc12` (centres undefined), for which the TGI was greater than 100 µM in the experiment on HCC-2998 colon; greater than 100 µM with 786-0 renal; greater than 100 µM with HCT-15 colon; 30.3 µM with HL-60(TB) leukemia; greater than 100 µM in the experiment on CCRF-CEM leukemia.
For `CCOC(=O)C(=O)Nc1ccc(Cl)cc1C`, the TGI with HCC-2998 colon, in the experiment on 786-0 renal, in the experiment with HCT-15 colon, with HL-60(TB) leukemia, in the experiment on CCRF-CEM leukemia and in the experiment on SK-MEL-5 melanoma was greater than 100 µM in each case.
`CN(CCc1ccccn1)c1nc(=[N+](C)C)ss1`: the TGI in the experiment with HCC-2998 colon, in the experiment with 786-0 renal, in the experiment on HCT-15 colon, in the experiment with HL-60(TB) leukemia, with CCRF-CEM leukemia and in the experiment on SK-MEL-5 melanoma was greater than 100 µM in each case.
As for `O=C(Cc1csc(-c2nc(CC(=O)NNc3ccccc3)cs2)n1)NNc1ccccc1`, the TGI in the experiment with HCC-2998 colon, in the experiment on 786-0 renal, in the experiment with HCT-15 colon, with HL-60(TB) leukemia, with CCRF-CEM leukemia and with SK-MEL-5 melanoma was greater than 100 µM each time.
For the compound `O=C(O)/C(Cl)=C(\Cl)C(=O)NC1C2CC3CC(C2)CC1C3` (centres undefined), the TGI with HCC-2998 colon, with 786-0 renal, with HCT-15 colon, with HL-60(TB) leukemia, with CCRF-CEM leukemia and with SK-MEL-5 melanoma was greater than 100 µM each time.
Turning to `C#CCN(N=O)C(=O)NC(CCCNC(=O)OCc1ccccc1)C(=O)OCc1ccccc1` (centres undefined), the TGI was greater than 100 µM with HCC-2998 colon; greater than 100 µM with 786-0 renal; greater than 100 µM in the experiment with HCT-15 colon; 42.9 µM in the experiment on HL-60(TB) leukemia; 52 µM in the experiment on CCRF-CEM leukemia; greater than 100 µM in the experiment on SK-MEL-5 melanoma.
In the case of `CN(C)CCNC(=O)c1cccc2c(Nc3ccc(S(N)(=O)=O)cc3)c3ccccc3nc12`, the TGI in the experiment on HCC-2998 colon worked out at 6.92 µM; with 786-0 renal it was 4.92 µM; in the experiment with HCT-15 colon, 7.07 µM; in the experiment with SK-MEL-5 melanoma, 10.3 µM.
Turning to `NCCN.NCCN.O=C[O-].O=C[O-].[Co+3].[O-][Cl+3]([O-])([O-])[O-]`, the GI50 with HCC-2998 colon, in the experiment with 786-0 renal, in the experiment with HCT-15 colon, in the experiment on HL-60(TB) leukemia, in the experiment on CCRF-CEM leukemia and with SK-MEL-5 melanoma was greater than 100 µM throughout. The TGI with HCC-2998 colon, in the experiment with 786-0 renal, in the experiment on HCT-15 colon, in the experiment on HL-60(TB) leukemia, in the experiment on CCRF-CEM leukemia and in the experiment on SK-MEL-5 melanoma was greater than 100 µM each time.
For `Cc1ccc(NC(=O)C(=O)CC(=O)C2CCOC2=O)c(C)c1` (centres undefined), the TGI in the experiment with HCC-2998 colon, with 786-0 renal, in the experiment on HCT-15 colon, in the experiment on HL-60(TB) leukemia, with CCRF-CEM leukemia and in the experiment with SK-MEL-5 melanoma was greater than 100 µM each time.
Consider `CC(=O)O[C@H]1CCC2[C@@H]3CCC4=C(O)C(=O)C(C#N)C[C@]4(C)C3CC[C@@]21C` (some centres undefined), for which the TGI was greater than 100 µM with HCC-2998 colon; greater than 100 µM in the experiment with 786-0 renal; greater than 100 µM with HCT-15 colon; 85.3 µM with HL-60(TB) leukemia; greater than 100 µM with CCRF-CEM leukemia; 71.1 µM with SK-MEL-5 melanoma.
On to `CN(CC#N)C1CCCC[C@H]1O` (some centres undefined), for which the TGI with HCC-2998 colon, with 786-0 renal, with HCT-15 colon, in the experiment with HL-60(TB) leukemia, with CCRF-CEM leukemia and in the experiment with SK-MEL-5 melanoma was greater than 100 µM each time.
Turning to `CN1C(c2ccccc2)CS(=O)(=O)CS1(=O)=O` (centres undefined), the TGI in the experiment with HCC-2998 colon, with 786-0 renal, with HCT-15 colon and in the experiment on SK-MEL-5 melanoma was greater than 100 µM each time.
As for `Cc1ccc(C2NC(=O)c3ccccc3N2)s1` (centres undefined), the TGI with HCC-2998 colon is 39.7 µM; in the experiment on 786-0 renal, greater than 100 µM; in the experiment on HCT-15 colon, greater than 100 µM; with HL-60(TB) leukemia it was 8.17 µM; with CCRF-CEM leukemia, greater than 100 µM; in the experiment on SK-MEL-5 melanoma, greater than 100 µM.
Regarding `Cc1ccccc1C(=O)Oc1ccc(O)cc1`, the TGI with HCC-2998 colon, with 786-0 renal, in the experiment with HCT-15 colon, in the experiment with HL-60(TB) leukemia, with CCRF-CEM leukemia and in the experiment on SK-MEL-5 melanoma was greater than 100 µM throughout.
Consider `O=S(=O)(N/N=C/c1cccc(Cl)c1Cl)c1ccccc1`, for which the TGI in the experiment on HCC-2998 colon, with 786-0 renal, in the experiment on HCT-15 colon, in the experiment on HL-60(TB) leukemia, with CCRF-CEM leukemia and with SK-MEL-5 melanoma was greater than 100 µM each time.
With `O=C(CC1(O)C(=O)Nc2ccccc21)c1ccco1` (centres undefined), the TGI with 786-0 renal, with HCT-15 colon, with HL-60(TB) leukemia and with SK-MEL-5 melanoma was greater than 100 µM in each case.
For the compound `CC1(C)OB(O)OC1(C)C`, the TGI with HCC-2998 colon, in the experiment on 786-0 renal, in the experiment on HCT-15 colon, with HL-60(TB) leukemia, in the experiment with CCRF-CEM leukemia and with SK-MEL-5 melanoma was greater than 100 µM throughout.
Turning to `O=c1cc(-c2ccccc2)oc2cc(O)cc(O)c12`, the TGI amounted to 38.6 µM in the experiment with HCC-2998 colon; 60.1 µM in the experiment on 786-0 renal; 64 µM with HCT-15 colon; 48.3 µM in the experiment on HL-60(TB) leukemia; 59.6 µM in the experiment on CCRF-CEM leukemia; 23.4 µM in the experiment with SK-MEL-5 melanoma.
`CC(=O)[O-].[Mn+3].[O-]c1ccccc1C=NCCN=Cc1ccccc1[O-]`: the GI50 is greater than 100 µM in the experiment with HCC-2998 colon; greater than 100 µM in the experiment on 786-0 renal; 41.9 µM with HCT-15 colon; 19.2 µM in the experiment on HL-60(TB) leukemia; 25.1 µM in the experiment with CCRF-CEM leukemia; 94.8 µM in the experiment on SK-MEL-5 melanoma. The TGI in the experiment on HCC-2998 colon, in the experiment on 786-0 renal, in the experiment on HCT-15 colon, in the experiment on HL-60(TB) leukemia, in the experiment on CCRF-CEM leukemia and with SK-MEL-5 melanoma was greater than 100 µM throughout.
For the compound `CC1=C(C(=O)Nc2cc(=O)n(C)c(=O)n2C)C(c2ccc([N+](=O)[O-])cc2)C(C(=O)Nc2cc(=O)n(C)c(=O)n2C)=C(C)N1`, the TGI in the experiment with HCC-2998 colon, in the experiment on 786-0 renal, with HCT-15 colon, with HL-60(TB) leukemia and in the experiment with CCRF-CEM leukemia was greater than 100 µM each time.
Turning to `O=S(=O)(SCc1ccccc1)C(c1ccccc1)c1ccccc1`, the TGI in the experiment on HCC-2998 colon was greater than 100 µM; with 786-0 renal it was greater than 100 µM; with HCT-15 colon, greater than 100 µM; in the experiment with HL-60(TB) leukemia, 77 µM; in the experiment on CCRF-CEM leukemia, greater than 100 µM; in the experiment with SK-MEL-5 melanoma it was 51.8 µM.
With `CC(=O)OC1CC2Oc3ccc(C)cc3C(C)(O2)C1=O` (centres undefined), the TGI in the experiment with 786-0 renal, with HCT-15 colon, with HL-60(TB) leukemia, with CCRF-CEM leukemia and in the experiment on SK-MEL-5 melanoma was greater than 100 µM in each case.
Turning to `O=C(Cc1nc2ccccc2s1)C(=O)Nc1cccc(Cl)c1`, the TGI with HCC-2998 colon, with 786-0 renal, in the experiment on HCT-15 colon, in the experiment on HL-60(TB) leukemia, in the experiment on CCRF-CEM leukemia and with SK-MEL-5 melanoma was greater than 100 µM each time.
For `COc1ccc(C(=O)C(c2ccc(OC)cc2)C2OC(=O)C(Cl)=C2Cl)cc1` (centres undefined), the TGI with HCC-2998 colon, with 786-0 renal, with HCT-15 colon, in the experiment with HL-60(TB) leukemia, in the experiment with CCRF-CEM leukemia and in the experiment with SK-MEL-5 melanoma was greater than 100 µM each time.
As for `O=C(Nc1cccc(Cc2cccc(NC(=O)c3ccccc3)c2)c1)c1ccccc1`, the TGI in the experiment on HCC-2998 colon, with 786-0 renal, with HCT-15 colon, in the experiment on HL-60(TB) leukemia, in the experiment with CCRF-CEM leukemia and in the experiment with SK-MEL-5 melanoma was greater than 100 µM each time.
`COc1ccc(Cc2cc3c(cc2OCC(=O)O)OCO3)cc1`: the TGI in the experiment with HCC-2998 colon, in the experiment on 786-0 renal, in the experiment with HL-60(TB) leukemia, in the experiment on CCRF-CEM leukemia and in the experiment with SK-MEL-5 melanoma was greater than 100 µM throughout.
On to `CN(/N=C/c1cccc2cccnc12)c1ccc([N+](=O)[O-])cc1`, for which the TGI in the experiment with HCC-2998 colon, in the experiment on 786-0 renal, in the experiment on HCT-15 colon, in the experiment on HL-60(TB) leukemia, with CCRF-CEM leukemia and in the experiment on SK-MEL-5 melanoma was greater than 100 µM in each case.
Consider `NC(=O)c1coc(C2OC(CO)C(O)C2O)n1` (centres undefined), for which the TGI with HCC-2998 colon, in the experiment with 786-0 renal, in the experiment with HCT-15 colon, with HL-60(TB) leukemia and in the experiment with CCRF-CEM leukemia was greater than 100 µM each time.
